Reference: ChEMBL document CHEMBL4765351, “Photoeradication of bacteria with porphycenes: Substituent effects on the efficiency” (Eur J Med Chem, 2020)
The source made the active and inactive calls. The rule behind the calls is not given here.

Tests used:
[1] = Absorption property in pluronic/PBS solution assessed as diode array corresponding wavelength of photodynamic inactivation by measuring electronic absorption spectra by spectrophotometry; format: physicochemical; conditions: buffer
Enterococcus faecalis [2] = experiment: Photodynamic antibacterial activity against Enterococcus faecalis 29212 assessed as bacterial eradication by measuring log reduction at 7 uM preincubated for 30 mins in dark condition followed by 0.6 J/cm2.min LED light irradiation for 120 mins; format: functional, ATCC 29212
[3] = Induction of […] generation in pluronic solution irradiated with 369 nanometer LED light at 6 mW by HPF fluorescence method
[4] = Induction of hydroxy radical generation in pluronic solution irradiated with 635 nanometer LED light at 6 mW by HPF fluorescence method
[5] = Induction of singlet oxygen generation in pluronic solution in deuterated water assessed as singlet oxygen quantum yield irradiated with 635 nanometer LED light at 300 mW by spectrometric method; format: functional
Enterococcus faecalis [6] = experiment: Photodynamic antibacterial activity against Enterococcus faecalis 29212 assessed as bacterial eradication at 7 uM preincubated for 30 mins in dark condition followed by 72 J/cm2 LED light irradiation; format: functional, ATCC 29212
HeLa = experiment: Photodynamic anticancer activity against human HeLa cells; format: functional, cell-based
[7] = Induction of singlet oxygen generation in toluene solution assessed as singlet oxygen quantum yield irradiated with 369 nanometer LED light at 300 mW by spectrometric method; format: functional
Enterococcus faecalis [8] = experiment: Photodynamic antibacterial activity against Enterococcus faecalis 29212 assessed as bacterial eradication at 7 uM preincubated for 30 mins in dark condition followed by 0.6 J/cm2.min LED light irradiation for 50 mins; format: functional, ATCC 29212; conditions: time 80 min, 1.333 h
Enterococcus faecalis [9] = experiment: Photodynamic antibacterial activity against Enterococcus faecalis 29212 assessed as bacterial eradication at 7 uM preincubated for 30 mins in dark condition followed by 30 J/cm2 LED light irradiation; format: functional, ATCC 29212; conditions: 0.5 h

Activity [1]	Structure (SMILES)	Activity (Enterococcus faecalis [2]; time 150 min, 2.5 h)	Activity [3]	Activity [4]	Activity [5]	Activity (Enterococcus faecalis [6]; 0.5 h) [%]	Activity (HeLa)	Activity [7]	Activity (Enterococcus faecalis [8]) [%]	Activity (Enterococcus faecalis [9]) [%]	Activity (Enterococcus faecalis [6]; ATCC 29212)	Activity (Enterococcus faecalis [2]; ATCC 29212, time 150.0 min)
Active	C1=Cc2nc1ccc1ccc([nH]1)c1nc(ccc3ccc2[nH]3)C=C1	–	Active	Active	0.28	–	Active	0.3	100	100	–	–
Active	CC(C)(C)c1cc2[nH]c1ccc1nc(c3ccc(ccc4nc2C=C4)[nH]3)C=C1	3	Active	Active	0.23	–	–	0.32	–	–	inactive	–
Active	CC(C)(C)C1=Cc2nc1ccc1[nH]c(cc1C(C)(C)C)c1nc(ccc3[nH]c2cc3C(C)(C)C)C(C(C)(C)C)=C1	–	Active	Active	0.21	–	inactive	0.38	–	–	inactive	inactive

More lines, now with the values behind:

Structure (SMILES)	Activity [1]	Activity (Enterococcus faecalis [2]; time 150 min, 2.5 h)	Activity [3]	Activity [4]	Activity [5]	Activity (Enterococcus faecalis [6]; 0.5 h) [%]	Activity (HeLa)	Activity [7]	Activity (Enterococcus faecalis [8]) [%]	Activity (Enterococcus faecalis [9]) [%]	Activity (Enterococcus faecalis [6]; ATCC 29212)	Activity (Enterococcus faecalis [2]; ATCC 29212, time 150.0 min)
COCCC1=Cc2nc1ccc1[nH]c(cc1CCOC)c1nc(ccc3[nH]c2cc3CCOC)C(CCOC)=C1	Active	6	Active	Active	0.23	100	Active	0.32	–	–	–	–
CC(C)(C)C1=Cc2nc1ccc1ccc([nH]1)c1nc(ccc3[nH]c2cc3C(C)(C)C)C=C1	Active	–	Active	Active	0.22	–	–	0.36	–	–	inactive	inactive
